{"source": "patent US9453244B2", "about": "“Method for producing a monoalkene by enzymatic conversion of an alkyl monoester” (Scientist of Fortune S.A., priority 2012, dated 2016)", "key": {"[1]": {"system": "purified terpene synthases", "test": "Propylene production from propan-2-yl diphosphate with purified terpene synthases (headspace GC/FID)", "type": "biochemical", "conditions": "50 mM substrate, 5 mg terpene synthase in 0.5 ml, 37° C., 60 hours", "experimental": "(§1) The enzymatic assays were carried out under the following conditions: 50 mM Tris-HCl pH 7.5 100 mM MgCl2 50 mM KCl 5 mM DTT 50 mM propan-2-yl diphosphate 5 mg of the terpene synthase was added to 0.5 ml of reaction mixture. An enzyme-free control reaction was carried out in parallel. Assays were incubated at 37° C. for 60 hours in a 1.5 ml sealed glass vial (Interchim) with shaking. One ml of the headspace phase was then collected and injected into a gas chromatograph Varian 430-GC equipped with a flame ionization detector (FID). Nitrogen was used as carrier gas with a flow rate of 1.5 mL/min. Volatile compounds were chromatographically separated on RT-Alumina Bond/Na2SO4 column (Restek) using an isothermal mode at 130° C. The enzymatic reaction product was identified by comparison with propylene standard (Sigma). Under these GC conditions, the retention time for propylene was 2.8 min. […] Gas chromatography-mass spectrometry (GC-MS) was then used to confirm the identity of the product detected by gas chromatography with flame ionization. The samples were analyzed on a Varian 3400 CX gas chromatograph equipped with Varian Saturn 3 mass selective detector. The mass spectrum of propylene obtained by enzymatic conversion of propan-2-yl diphosphate was similar to the one of commercial propylene (FIG. 3)."}, "[2]": {"molecular_target": "T1, isoprene synthase from Pueraria montana var. lobata (Pueraria montana var. lobata, UniProt Q6EJ97)", "T1 construct": "6xHis (N); made in house; host or cells: E. coli BL21(DE3), pET 25b(+)", "T1 sequence (Q6EJ97 46-608)": "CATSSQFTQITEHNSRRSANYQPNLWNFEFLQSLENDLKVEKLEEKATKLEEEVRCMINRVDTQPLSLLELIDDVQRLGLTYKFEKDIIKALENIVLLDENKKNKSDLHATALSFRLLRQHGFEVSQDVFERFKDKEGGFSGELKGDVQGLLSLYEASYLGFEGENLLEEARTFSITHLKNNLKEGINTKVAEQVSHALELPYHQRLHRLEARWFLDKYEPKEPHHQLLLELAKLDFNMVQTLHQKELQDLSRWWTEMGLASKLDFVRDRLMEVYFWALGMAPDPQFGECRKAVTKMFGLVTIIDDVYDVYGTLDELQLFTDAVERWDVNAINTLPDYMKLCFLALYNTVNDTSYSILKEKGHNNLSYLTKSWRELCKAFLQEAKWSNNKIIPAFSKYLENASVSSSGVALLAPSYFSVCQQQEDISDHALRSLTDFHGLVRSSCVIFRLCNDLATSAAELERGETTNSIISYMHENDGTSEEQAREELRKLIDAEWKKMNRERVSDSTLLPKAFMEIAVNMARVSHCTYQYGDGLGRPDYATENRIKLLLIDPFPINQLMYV", "test": "GC-MS confirmation of propylene produced from propan-2-yl diphosphate in the enzymatic reaction", "type": "biochemical", "conditions": "FIG. 3", "experimental": "as §1, with “5” for “The enzymatic assays were carried out under the following conditions: 50 mM Tris-HCl pH 7.5 100 mM MgCl2 50 mM KCl 5 mM DTT 50 mM propan-2-yl diphosphate 5”"}}}
{"substance": "propan-2-yl diphosphate", "values": [{"measurement": "propylene production from the substrate (enzymatic conversion)", "setting": "[1]; pH 7.5", "result": "significant production of propylene"}, {"measurement": "propylene production from the substrate (enzymatic conversion)", "setting": "[1]; pH 7.5, listed as propan-2-yl", "result": "able to convert propan-2-yl into propylene"}, {"measurement": "propylene produced from the substrate, identity confirmed by mass spectrum", "setting": "[2]", "result": "propylene produced"}]}
